SMILES strings stand for the structures. Inconclusive results are not listed. Activity calls are given as the source filed them.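 The calls were made as follows: active = EC50 at or below 10 µM; inconclusive = EC50 above 10 and up to 20 µM; inactive = EC50 above 20 µM.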

The test system of the assay is MV4-11 apoptosis, Annexin V flow cytometry, 48 h. The assay can be described thus: MV4-11 leukemia cell apoptotic death – Annexin V, flow cytometry, dose response (AID 1347409). On the technique in general: In flow cytometry, cells or beads pass a laser one at a time.
As to `CN(CCC(=O)C=Cc1ccc(Cl)c(Cl)c1)CCc1ccc2c(c1)OCO2`, the EC50 (in general, the midpoint of the concentration-response curve) is 5.2 µM.
For `COc1ccc(C=C2C(=O)N(Cc3ccco3)C(=O)N(C(C)C)C2=O)cc1` the value was 60 µM (inactive); for `CCCCCCCCCOc1ccc(C#CC(=O)O)cc1`, 32.4 µM (inactive).
As for `CCOc1ccc2nc3cc(NC(=O)c4ccco4)ccc3c(N)c2c1`, the EC50 is 1.3 µM.
For `NCCCSc1nc2c(c(=O)n1Cc1ccccc1)C1(CCCCC1)Cc1ccccc1-2` the value was 2.4 µM.
As for `CCNc1ccc(Br)cc(C(=O)/C=C/c2c(Cl)cccc2Cl)c1=O`, the figure is 4.4 µM.
In the case of `Cc1ccc2c(c1)-c1c(c(C(=O)N3CCN(c4cc(C)ccc4C)CC3)nn1C)CS2`, the EC50 was 68.2 µM (inactive).
As for `CCOC(=O)c1c(NC(=O)CCC(=O)O)sc(C)c1-c1ccc(CC(C)C)cc1`, the figure is 33.6 µM (inactive).
As for `Cc1ccc(NC(=O)c2ccc(Cl)cc2Cl)c(S(=O)(=O)O)c1`, the figure is 90.1 µM (inactive); as for `CCOc1cccc2c1N[C@@H](c1ccc(C(=O)O)cc1)[C@H]1CC=C[C@@H]21`, 113 µM (inactive); as for `Cc1ccc([C@@H]2Nc3c(ccc(C(=O)O)c3C)[C@@H]3C=CC[C@@H]32)cc1`, 94.8 µM (inactive).
